How the values were obtained:
[1] = tested on: OD26749 primary NSCLC xenograft; assay: OD26749 primary NSCLC xenograft efficacy with whole body IR; format: in vivo, nude mice; conditions: bridging study; Compound (2) PO 50 mg/kg bid (0, 4 h), 2 Gy ([…]) qdx3
Method: The in vivo efficacies of Compounds (1) and (2) in combination with whole body IR were examined in the OD26749 primary NSCLC (non-small cell lung cancer) and the OE-19 GEJ cell line xenograft models. In these studies, Compounds (1) and (2) were formulated with 16% captisol/1% PVP/1% HPMC E5 pH2.
The in vivo efficacy of Compound (1) was evaluated in the primary OD26749 NSCLC subcutaneous xenograft model. […] […] Compound (1) was administered PO (tid at 0, 3, and 7 h) at 100 mg/kg alone or with a single 2 Gy dose of whole body IR at 3.25 h. […] Compound (1) in combination with 2 Gy whole body IR induced significant tumor regression (% T/Ti of −75; P<0.01) compared to IR alone.
The efficacies of Compounds (1) and (2) in combination with whole body IR (2 Gy) were evaluated in the OD26749 primary NSCLC xenograft model at a Compound ([…]) and Compound (2) dose levels of 50 mg/kg and 100 mg/kg PO bid (0 and 4 h). Two cycles of whole body IR (2 Gy) were given 15 min after the first compound administration (0.25 hour). Control animals were administered vehicle PO bid (0 and 4 h). […]
(§1) In Tables 14 and 15, for example, PO bid (0, 4 h) indicates Compound (2) is administered twice (bid) at time point 0 and then 4 hours after; IR (0.25 h) qdx3 indicates radiation is administered 15 minutes (0.25 h) after the administration of Compound (2) (0 h), and once a day for 3 days (qdx3); q7dx2 indicates once a week for two weeks; qod indicates every other day twice (e.g., Day 1 and Day 3); and paclitaxel q7dx3 (−0.25 h), carboplatin q7dx3 (−0.25 h) indicates administration of paclitaxel and carboplatin 15 minutes prior to the administration of Compound (2), followed by additional administration of Compound (2) after 4 hours after the first administration of Compound (2).

[2] = Body weight in OE-19 xenograft studies; format: in vivo; conditions: PO 100 mg/kg bid (0, 4 h) q7dx2, 2 Gy IR q7dx2 ([…]); Day 7
Method: The OE-19 cell line xenograft model was used to evaluate the efficacy of Compounds (1) and (2) alone and in combination with IR. Two cycles of treatment were administered (Day 0 and Day 7) as performed in the OD26749 model above.

[3] = tested on: LU-01-0030 primary NSCLC subcutaneous xenograft; assay: LU-01-0030 primary NSCLC xenograft efficacy with focused IR; format: in vivo, mice
Method: The in vivo efficacies of Compounds (1) and (2) were evaluated alone and in combination with three consecutive days of focused IR in the primary LU-01-0030 NSCLC subcutaneous xenograft model. The dose-dependent anti-tumor activity of Compound (2) alone and in combination with focused beam IR was evaluated in the LU-01-0030 model.
as §1

[4] = Body weight in OD26749 xenograft studies; format: in vivo, nude mice; conditions: bridging study; Compound (2) PO 50 mg/kg bid (0, 4 h), 2 Gy ([…]) qdx3; Day 1
[5] = Body weight in LU-01-0030 xenograft studies; format: in vivo, mice; conditions: Day 34 study
Method: The in vivo efficacies of Compounds (1) and (2) were evaluated alone and in combination with three consecutive days of focused IR in the primary LU-01-0030 NSCLC subcutaneous xenograft model. The dose-dependent anti-tumor activity of Compound (2) alone and in combination with focused beam IR was evaluated in the LU-01-0030 model. […] Mice in the combination treatment groups were monitored (without treatment) for up to 90 days as some mice had no evidence of tumor burden.

[6] = tested on: ST-02-0004 primary GEJ tumor xenograft; assay: ST-02-0004 primary GEJ tumor xenograft efficacy with focused IR; format: in vivo; conditions: for % T/C (Day 45): 5 mg/kg paclitaxel, 25 mg/kg carboplatin q7dx3 (−[…])
Method: The in vivo activities of Compounds (1) and (2) were compared in combination with focused beam IR in a primary gastric cancer subcutaneous xenograft model. In the ST 02 0004 model, focused IR was administered on three consecutive days alone and in combination with Compound (1) or Compound (2).
The anti-tumor activity of Compound (2) in combination with focused-beam IR and the standard of care agents, paclitaxel and carboplatin, was also evaluated in the ST 02 0004 model. Treatment with paclitaxel, carboplatin, and IR was administered once per week for three weeks alone or in combination with Compound (2).
as §1

[7] = Blood exposure in OD26749 bridging study; format: in vivo, nude mice; conditions: nude, mouse, whole blood; 100 mg/kg PO bid (0 and 4 h) combination groups with 2 Gy whole body IR
primary human tumors = assay: Primary tumor chemosensitivity assay (TCA), Cell Titer-Glo, Bliss; format: cell-based; conditions: Compound (2) with bleomycin; gastric, pancreatic tumors
Method: Primary human tumors tested in vitro may provide a better indicator of efficacy of DNA PK inhibition than immortalized cancer cell lines due to their increased heterogeneity and closer proximity to the patient tumor from which they were derived. […] Dissociated cells from mouse-passaged tumors were cultured for 6 days after combination exposure and then assessed for viability using the Cell Titer-Glo assay. The Bliss Additivity statistical model was used to determine the degree of synergy, additivity, or antagonism of each combination treatment.

[2H]c1nc(C)nc([2H])c1-c1cc(NC[C@@H](C)c2cccc3c(C(=O)NC)ccnc23)ncn1 [Compound (2), (S)-N-methyl-8-(1-((2′-methyl-4′,6′-dideutero-[4,5′-bipyrimidin]-6-yl)amino)propan-2-yl)quinoline-4-carboxamide]
% T/C (Day 22) [1]: 27.2% | Max. body wt loss (%) [2]: −6.50% | % T/Ti (Day 34) ([3]; PO 25 mg/kg bid (0, 4 h) qdx3, 2 Gy IR ([…]) qdx3): −67.1% | % T/Ti (Day 34) ([3]; PO 50 mg/kg bid (0, 4 h) qdx3, 2 Gy IR ([…]) qdx3): −96.3% | % T/C (Day 34) ([3]; PO 50 mg/kg bid (0, 4 h) qdx3, no IR): 98.3% | % T/Ti (Day 34) ([3]; PO 50 mg/kg qdx3, 2 Gy IR ([…]) qdx3): −96.9% | Max. body wt loss (%) [4]: −2.10% | Max. body wt loss (%) ([5]; PO 25 mg/kg bid (0, 4 h) qdx3, 2 Gy IR ([…]) qdx3, Day 3): −6.59% | Max. body wt loss (%) ([5]; PO 25 mg/kg qdx3, 2 Gy IR ([…]) qdx3, Day 1): −4.62% | Max. body wt loss (%) ([5]; PO 50 mg/kg bid (0, 4 h) qdx3, 2 Gy IR ([…]) qdx3, Day 3): −6.93% | Max. body wt loss (%) ([5]; PO 50 mg/kg bid (0, 4 h) qdx3, no IR, Day 9): −1.11% | Max. body wt loss (%) ([5]; PO 50 mg/kg qdx3, 2 Gy IR ([…]) qdx3, Day 3): −4.66% | % T/C (Day 45) ([6]; 2 Gy IR qdx3 ([…]), Compound (2) PO 25 mg/kg bid (0, 4 h) qdx3): 11.1% | % T/C (Day 45) ([6]; 2 Gy IR qdx3 ([…]), Compound (2) PO 50 mg/kg bid (0, 4 h) qdx3): 2.5% | % T/C (Day 45) ([6]; Compound (2) PO 50 mg/kg bid (0, 4 h) qdx3, no IR): 95.4% | % T/C (Day 34) ([6]; Compound (2) PO 25 mg/kg bid (0, 4 h) qdx3, 2 Gy IR qdx3 ([…])): 17.4% | % T/C (Day 34) ([6]; Compound (2) PO 100 mg/kg bid (0, 4 h) qdx3, 2 Gy IR qdx3 ([…])): 9.2% | % T/C (Day 34) ([6]; Compound (2) PO 100 mg/kg bid (0, 4 h) qdx3, no IR): 67.6% | AUC [7]: 58200 ng·h/mL | tumors additive or synergistic / tumors tested (primary human tumors): 20/20 | tumors strongly synergistic / tumors tested (primary human tumors): 3/20
